Read-outs that look alike come from different tables or passages of the source.
Columns and labels:
Assay type in all cases: in vivo
[1] = test system: Euschistus heros; test: Euschistus heros (neotropical brown stink bug) feeding/contact activity; conditions: 120 h
Experimental: Euschistus heros (Neotropical Brown Stink Bug): Feeding/Contact Activity
Soybean leaves on agar in 24-well microtiter plates were sprayed with aqueous test solutions prepared from 10′000 ppm DMSO stock solutions. After drying the leaves were infested with N2 nymphs. The samples were assessed for mortality 5 days after infestation.

[2] = test system: Myzus persicae; test: Myzus persicae (green peach aphid) feeding/contact activity; conditions: foliar, 144 h
Experimental: Myzus persicae (Green Peach Aphid): Feeding/Contact Activity
Sunflower leaf discs were placed onto agar in a 24-well microtiter plate and sprayed with aqueous test solutions prepared from 10′000 ppm DMSO stock solutions. After drying, the leaf discs were infested with an aphid population of mixed ages. The samples were assessed for mortality 6 days after infestation.

[3] = test system: Plutella xylostella; test: Plutella xylostella (diamond back moth) feeding/contact activity; conditions: 120 h
Experimental: Plutella xylostella (Diamond Back Moth): Feeding/Contact Activity
24-well microtiter plates with artificial diet were treated with aqueous test solutions prepared from 10′000 ppm DMSO stock solutions by pipetting. After drying, the plates were infested with L2 larvae (10 to 15 per well). The samples were assessed for mortality 5 days after infestation.

[4] = test system: Spodoptera littoralis; test: Spodoptera littoralis (Egyptian cotton leaf worm) feeding/contact activity; conditions: foliar, 72 h
Experimental: Spodoptera littoralis (Egyptian cotton leaf worm): Feeding/contact activity Cotton leaf discs were placed onto agar in 24-well microtiter plates and sprayed with aqueous test solutions prepared from 10′000 ppm DMSO stock solutions. After drying the leaf discs were infested with five L1 larvae. The samples were assessed for mortality 3 days after infestation.

[5] = test system: Tetranychus urticae; test: Tetranychus urticae (two-spotted spider mite) feeding/contact activity; conditions: foliar, 192 h, read-out: mortality on mixed population (mobile stages)
Experimental: Tetranychus urticae (Two-Spotted Spider Mite): Feeding/Contact Activity
Bean leaf discs on agar in 24-well microtiter plates were sprayed with aqueous test solutions prepared from 10′000 ppm DMSO stock solutions. After drying the leaf discs were infested with a mite population of mixed ages. The samples were assessed for mortality on mixed population (mobile stages) 8 days after infestation.

[6] = test system: Thrips tabaci; test: Thrips tabaci (onion thrips) feeding/contact activity; conditions: foliar, 144 h
Experimental: Thrips tabaci (Onion Thrips): Feeding/Contact Activity
Sunflower leaf discs were placed on agar in 24-well microtiter plates and sprayed with aqueous test solutions prepared from 10′000 ppm DMSO stock solutions. After drying the leaf discs were infested with a thrips population of mixed ages. The samples were assessed for mortality 6 days after infestation.

[7] = test system: Diabrotica balteata; test: Diabrotica balteata (corn root worm) mortality test on maize sprouts; conditions: 96 h, application rate 200 ppm, L2 larvae on sprayed maize sprouts, assessed 4 days after infestation
Experimental: Diabrotica balteata (Corn Root Worm):
Maize sprouts placed onto an agar layer in 24-well microtiter plates were treated with aqueous test solutions prepared from 10′000 ppm DMSO stock solutions by spraying. After drying, the plates were infested with L2 larvae (6 to 10 per well). The samples were assessed for mortality 4 days after infestation.

[8] = application rate 200 ppm, N2 nymphs on sprayed soybean leaves, assessed 5 days after infestation, read-out: mortality
[9] = application rate 200 ppm, aphid population of mixed ages on sprayed sunflower leaf discs, assessed 6 days after infestation, read-out: mortality
[10] = application rate 200 ppm, L2 larvae on treated artificial diet, assessed 5 days after infestation, read-out: mortality
[11] = application rate 200 ppm, L1 larvae on sprayed cotton leaf discs, assessed 3 days after infestation, read-out: mortality
[12] = application rate 200 ppm, mite population of mixed ages on sprayed bean leaf discs, assessed 8 days after infestation
[13] = application rate 200 ppm, thrips population of mixed ages on sprayed sunflower leaf discs, assessed 6 days after infestation, read-out: mortality

Measured: mortality at 200 ppm

Cn1nc(C(F)(F)C(F)(F)F)c(OC(F)F)c1-n1cc(-c2ccc(C(F)(F)F)c(C(=O)N(CC#N)C3(C#N)CC3)c2)cn1 [Compound 8, N-(1-cyanocyclopropyl)-N-(cyanomethyl)-5-[1-[4-(difluoromethoxy)-2-methyl-5-(1,1,2,2,2-pentafluoroethyl)pyrazol-3-yl]pyrazol-4-yl]-2-(trifluoromethyl)benzamide]
≥ 80%: [1]; [8] | [2]; [9] | [3]; [10] | [4]; [11] | [5]; [12] | [6]; [13]

CCOC(=O)N(C(=O)c1cc(-c2cnn(-c3c(OC(F)F)c(C(F)(F)C(F)(F)F)nn3C)c2)ccc1C(F)(F)F)C1(C#N)CC1 [Compound 9, ethyl N-(1-cyanocyclopropyl)-N-[5-[1-[4-(difluoromethoxy)-2-methyl-5-(1,1,2,2,2-pentafluoroethyl)pyrazol-3-yl]pyrazol-4-yl]-2-(trifluoromethyl)benzoyl]carbamate]
≥ 80%: [1]; in Glycine max | [2] | [3] | [4] | [5] | [6]

CN(C(=O)c1cc(-c2cnn(-c3c(OC(F)F)c(C(F)(F)C(F)(F)F)nn3C)c2)ccc1C(F)(F)F)C1(C#N)CC1 [Compound 2, N-(1-cyanocyclopropyl)-5-[1-[4-(difluoromethoxy)-2-methyl-5-(1,1,2,2,2-pentafluoroethyl)pyrazol-3-yl]pyrazol-4-yl]-N-methyl-2-(trifluoromethyl)benzamide]
≥ 80%: [7] | [1]; [8] | [2]; [9] | [3]; [10] | [4]; [11] | [5]; [12] | [6]; [13]

C#CCN(C(=O)c1cc(-c2cnn(-c3c(OC(F)F)c(C(F)(F)C(F)(F)F)nn3C)c2)ccc1C(F)(F)F)C1(C#N)CC1 [Compound 10]
≥ 80%: [1]; [8] | [2]; [9] | [3]; [10] | [4]; [11] | [5]; [12] | [6]; [13]

CC(=O)N(C(=O)c1cc(-c2cnn(-c3c(OC(F)F)c(C(F)(F)C(F)(F)F)nn3C)c2)ccc1C(F)(F)F)C1(C#N)CC1 [Compound 6, N-acetyl-N-(1-cyanocyclopropyl)-5-[1-[4-(difluoromethoxy)-2-methyl-5-(1,1,2,2,2-pentafluoroethyl)pyrazol-3-yl]pyrazol-4-yl]-2-(trifluoromethyl)benzamide]
≥ 80%: [1]; [8] | [2]; [9] | [3]; [10] | [4]; [11] | [5]; [12] | [6]; [13]

COCN(C(=O)c1cc(-c2cnn(-c3c(OC(F)F)c(C(F)(F)C(F)(F)F)nn3C)c2)ccc1C(F)(F)F)C1(C#N)CC1 [Compound 7, N-(1-cyanocyclopropyl)-5-[1-[4-(difluoromethoxy)-2-methyl-5-(1,1,2,2,2-pentafluoroethyl)pyrazol-3-yl]pyrazol-4-yl]-N-(methoxymethyl)-2-(trifluoromethyl)benzamide]
≥ 80%: [1]; [8] | [2]; [9] | [3]; [10] | [4]; [11] | [5]; [12] | [6]; [13]

Cn1nc(C(F)(F)C(F)(F)F)c(OC(F)F)c1-n1cc(-c2ccc(C(F)(F)F)c(C(=O)N(CC3CC3)C3(C#N)CC3)c2)cn1 [Compound 5, N-(1-cyanocyclopropyl)-N-(cyclopropylmethyl)-5-[1-[4-(difluoromethoxy)-2-methyl-5-(1,1,2,2,2-pentafluoroethyl)pyrazol-3-yl]pyrazol-4-yl]-2-(trifluoromethyl)benzamide]
≥ 80%: [1]; [8] | [2]; [9] | [3]; [10] | [4]; [11] | [6]; [13]

Cn1nc(C(F)(F)C(F)(F)F)c(OC(F)F)c1-n1cc(-c2ccc(C(F)(F)F)c(C(=O)NC3CC3)c2)cn1 [Compound 4, N-cyclopropyl-5-[1-[4-(difluoromethoxy)-2-methyl-5-(1,1,2,2,2-pentafluoroethyl)pyrazol-3-yl]pyrazol-4-yl]-2-(trifluoromethyl)benzamide]
≥ 80%: [7] | [1]; [8] | [2]; [9] | [3]; [10] | [4]; [11] | [5]; [12] | [6]; [13]

Cn1nc(C(F)(F)C(F)(F)F)c(OC(F)F)c1-n1cc(-c2ccc(C(F)(F)F)c(C(=O)NC3(C#N)CC3)c2)cn1 [Compound 1, N-(1-cyanocyclopropyl)-5-[1-[4-(difluoromethoxy)-2-methyl-5-(1,1,2,2,2-pentafluoroethyl)pyrazol-3-yl]pyrazol-4-yl]-2-(trifluoromethyl)benzamide]
≥ 80%: [7] | [1]; [8] | [2]; [9] | [3]; [10] | [4]; [11] | [5]; [12] | [6]; [13]

CCN(C(=O)c1cc(-c2cnn(-c3c(OC(F)F)c(C(F)(F)C(F)(F)F)nn3C)c2)ccc1C(F)(F)F)C1(C#N)CC1 [Compound 3, N-(1-cyanocyclopropyl)-5-[1-[4-(difluoromethoxy)-2-methyl-5-(1,1,2,2,2-pentafluoroethyl)pyrazol-3-yl]pyrazol-4-yl]-N-ethyl-2-(trifluoromethyl)benzamide]
≥ 80%: [7] | [1]; [8] | [2]; [9] | [3]; [10] | [4]; [11] | [5]; [12] | [6]; [13]

— patent publication US20200288713A1, “PESTICIDALLY ACTIVE PYRAZOLE DERIVATIVES” (SYNGENTA PARTICIPATIONS AG, priority 2017, published 2020)
